Values of other authors as cited in patent US12637513B2, “Method of treating cancer by administering an inhibitor of erythropoietin receptor activity comprising either erythropoietin receptor or erythropoietin protein” (ImmunEdge, Inc., priority 2022, dated 2026).
Read-outs that look alike come from different tables or passages of the source.

Columns and labels:
[1] = target: HIF-1a (Homo sapiens, UniProt Q16665); details: cited from earlier work
[2] = target: HIF-2a (Homo sapiens, UniProt Q99814); details: target HIF-2a; cited from earlier work
[3] = test system: PHD; details: cited from earlier work

Sequence of HIF-2a (Q99814 whole entry): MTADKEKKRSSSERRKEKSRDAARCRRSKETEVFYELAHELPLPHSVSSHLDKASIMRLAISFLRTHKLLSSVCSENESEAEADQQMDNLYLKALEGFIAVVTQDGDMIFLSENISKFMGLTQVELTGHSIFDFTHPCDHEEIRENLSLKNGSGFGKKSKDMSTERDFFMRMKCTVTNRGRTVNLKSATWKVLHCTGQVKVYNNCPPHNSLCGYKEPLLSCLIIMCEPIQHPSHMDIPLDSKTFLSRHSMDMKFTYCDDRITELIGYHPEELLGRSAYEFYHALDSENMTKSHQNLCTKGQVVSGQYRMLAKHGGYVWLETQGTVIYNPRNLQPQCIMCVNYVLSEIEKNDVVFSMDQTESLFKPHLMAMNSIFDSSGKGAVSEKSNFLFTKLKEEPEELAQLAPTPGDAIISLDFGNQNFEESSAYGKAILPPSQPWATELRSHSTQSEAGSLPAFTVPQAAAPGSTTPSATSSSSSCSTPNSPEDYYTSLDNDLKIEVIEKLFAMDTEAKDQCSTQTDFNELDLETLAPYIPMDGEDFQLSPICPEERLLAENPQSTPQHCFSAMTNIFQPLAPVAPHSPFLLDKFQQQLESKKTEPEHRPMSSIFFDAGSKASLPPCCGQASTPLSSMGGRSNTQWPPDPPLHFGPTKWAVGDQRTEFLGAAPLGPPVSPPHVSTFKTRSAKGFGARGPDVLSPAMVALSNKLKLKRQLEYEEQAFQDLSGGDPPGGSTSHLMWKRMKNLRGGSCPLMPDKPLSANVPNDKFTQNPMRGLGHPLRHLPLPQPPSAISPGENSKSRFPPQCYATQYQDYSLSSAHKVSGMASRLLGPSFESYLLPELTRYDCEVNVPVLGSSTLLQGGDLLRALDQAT
Sequence of HIF-1a (Q16665 whole entry): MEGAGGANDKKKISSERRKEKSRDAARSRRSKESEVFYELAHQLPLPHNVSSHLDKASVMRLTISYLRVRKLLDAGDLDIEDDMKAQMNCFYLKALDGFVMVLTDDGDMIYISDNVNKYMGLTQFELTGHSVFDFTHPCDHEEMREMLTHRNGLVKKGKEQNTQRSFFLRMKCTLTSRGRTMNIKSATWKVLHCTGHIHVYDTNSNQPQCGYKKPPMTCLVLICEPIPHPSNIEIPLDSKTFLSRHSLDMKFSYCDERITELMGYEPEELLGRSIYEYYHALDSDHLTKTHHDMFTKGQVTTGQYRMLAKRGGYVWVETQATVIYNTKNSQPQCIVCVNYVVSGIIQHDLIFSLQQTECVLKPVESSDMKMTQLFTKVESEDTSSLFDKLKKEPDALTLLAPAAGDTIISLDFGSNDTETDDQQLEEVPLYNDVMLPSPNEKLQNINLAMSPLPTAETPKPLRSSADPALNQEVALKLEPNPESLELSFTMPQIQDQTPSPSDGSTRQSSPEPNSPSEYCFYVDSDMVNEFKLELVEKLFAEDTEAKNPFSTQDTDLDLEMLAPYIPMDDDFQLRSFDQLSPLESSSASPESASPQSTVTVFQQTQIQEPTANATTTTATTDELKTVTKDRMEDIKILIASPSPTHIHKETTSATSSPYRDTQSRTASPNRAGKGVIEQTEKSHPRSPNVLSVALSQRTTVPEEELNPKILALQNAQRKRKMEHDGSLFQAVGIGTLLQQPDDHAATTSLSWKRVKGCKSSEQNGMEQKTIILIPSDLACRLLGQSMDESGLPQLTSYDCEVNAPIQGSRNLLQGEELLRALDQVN

SMILES: COC(=O)c1ccc(O)c(NC(=O)COc2ccc(C34CC5CC(CC(C5)C3)C4)cc2)c1 [CAY10585 (LW6)]
- IC50 ([1]; read-out: IC50): 700 to 2600 nM

SMILES: CN1C(=O)[C@]2(Cc3cn([C@]45C[C@@]67SS[C@@](CO)(C(=O)N6[C@H]4Nc4ccccc45)N(C)C7=O)c4ccccc34)SS[C@@]1(CO)C(=O)N2C [Chetomin]
- IC50 ([1]; target HIF-1a, read-out: IC50): 10 nM

SMILES: CS[C@H]1SC[C@H]2C(=O)N(C)[C@@H](C(C)C)C(=O)OC[C@@H](NC(=O)c3cnc4ccccc4n3)C(=O)N[C@@H](C)C(=O)N(C)[C@@H]1C(=O)N(C)[C@@H](C(C)C)C(=O)OC[C@@H](NC(=O)c1cnc3ccccc3n1)C(=O)N[C@@H](C)C(=O)N2C [Echinomycin]
- IC50 ([1]; target HIF-1a, read-out: IC50): 1.2 nM

SMILES: Cc1ccc(C(=O)COC(=O)c2cccc(NC(=O)c3ccc([N+](=O)[O-])cc3[N+](=O)[O-])c2)cc1 [FM19G11]
- IC50 ([1]; target HIF-1a): 80 nM

SMILES: O=[N+]([O-])c1cc(Nc2ccc3nonc3c2[N+](=O)[O-])ccc1Cl [HIF-2α-IN-3]
- IC50 [2]: 400 nM

SMILES: COC(=O)c1sccc1N/N=C(\C#N)S(C)(=O)=O [HIF-2α-IN-4]
- IC50 [2]: 5000 nM

SMILES: O=S(=O)(NCCSSCCNS(=O)(=O)c1cc(Cl)ccc1Cl)c1cc(Cl)ccc1Cl [KC7F2]
- IC50 ([1]; target HIF-1a, read-out: IC50): 20000 nM

SMILES: c1ccc(-c2ccc(CNc3nc(-c4ccccn4)nnc3-c3ccccc3)cc2)cc1 [ML228]
- IC50 ([3]; target cell empty): 1000 nM

SMILES: O=c1c(-n2ccnn2)c[nH]n1-c1cc(N2CCOCC2)ncn1 [Molidustat]
- IC50 ([3]; target PHD): 450 nM

SMILES: O=C(O)CNC(=O)c1ncc(-c2cn(CCCc3ccc(Cl)cc3)nn2)cc1O [Prolyl Hydroxylase inhibitor 1]
- IC50 ([3]; target PHD): 62.2 nM

SMILES: O=[N+]([O-])c1c(Nc2cc(F)cc(Cl)c2)ccc2nonc12 [TC-S 700]
- IC50 [2]: 81 nM

SMILES: CC[C@@H](C)C[C@H](C)C[C@H](C)/C=C(\C)[C@H]1OC(O)([C@](C)(O)C(=O)N[C@@H]2C(=O)N3NCCC[C@@H]3C(=O)N(O)CC(=O)N(C)CC(=O)NCC(=O)N(C)CC(=O)O[C@H]2C(C)C)CC[C@@H]1OC (stereo partly drawn) [Verucopeptin]
- IC50 ([1]; target HIF-1a, read-out: IC50): 220 nM
